Our source for the IC50 values is patent US9090605B2, “Substituted 5-,6- and 7-membered heterocycles, medicaments containing such compounds, and their use” (Vitae Pharmaceuticals, Inc., priority 2010, dated 2015).

11β-HSD1, sequence (P28845 whole entry): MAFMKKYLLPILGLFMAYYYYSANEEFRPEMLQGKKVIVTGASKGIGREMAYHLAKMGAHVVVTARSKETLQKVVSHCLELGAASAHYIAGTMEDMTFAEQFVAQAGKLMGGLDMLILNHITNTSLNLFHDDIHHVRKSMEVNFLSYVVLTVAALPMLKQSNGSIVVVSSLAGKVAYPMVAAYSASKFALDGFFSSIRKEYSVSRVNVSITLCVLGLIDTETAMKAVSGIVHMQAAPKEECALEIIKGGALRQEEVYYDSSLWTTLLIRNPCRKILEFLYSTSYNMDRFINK

In the experiment the target is 11β-HSD1 (Homo sapiens, UniProt P28845). Briefly: In vitro inhibition of 11β-HSD1, HTRF detection of cortisol generated by human liver microsomes (biological test example 1). Format: biochemical. On the set-up: detecting cortisol generated from cortisterone by human liver microsomes; from tissue; host or cells: human liver microsomes. The conditions noted are these: 1 hour at 37° C., cortisone 80 nM, NADPH 200 μM, read-out: IC50, inhibitory activity on 11β-HSD 1. How it is done:
Briefly, compounds were incubated for 1 hour at 37° C. in Tris buffer (20 mM tris, 5 mM EDTA, pH 6.0) containing NADPH (200 μM) and cortisone (80 nM). Cortisol generated in the reaction was then detected with a competitive immunoassay, involving two HTRF conjugates: cortisol linked to XL665 and anti-cortisol antibody labeled with Europium cryptate. The incubation period for detection reaction was typically 2 hours. The amount of cortisol was determined by reading the time-resolved fluorescence of the wells (Ex 320/75 nm; Em 615/8.5 nm and 665/7.5 nm). The ratio of the two emission signals was then calculated (Em665*10000/Em615). […] Each assay also contained a calibration curve with cortisol to transform the fluorescent data into cortisol concentrations. Percent inhibition (% CTL) of each compound was determined relative to the carbenoxolone signal and IC50 curves were generated.
Background: In TR-FRET formats the signal depends on donor and acceptor labels being close together.
By IC50 is commonly meant the point on the concentration scale where inhibition reaches its midpoint. As for `C[C@@H](c1ccc(-c2ccc(C3(C(N)=O)CC3)nn2)cc1)N1CC[C@](CC(C)(C)O)(c2ccccc2)OC1=O` [Example 9, 1-[6-(4-{(S)-1-[(S)-6-(2-Hydroxy-2-methyl-propyl)-2-oxo-6-phenyl-[1,3]oxazinan-3-yl]-ethyl}-phenyl)-pyridazin-3-yl]-cyclopropanecarboxylic acid amide], the IC50 was determined as 68 nM.

As for `C[C@@H](c1ccc(-c2ccc(C3(O)COC3)cc2)cc1)N1CC[C@](CC(C)(C)O)(c2ccccc2)OC1=O` [Example 1, (S)-6-(2-Hydroxy-2-methyl-propyl)-3-{(S)-1-[4′-(3-hydroxy-oxetan-3-yl)-biphenyl-4-yl]-ethyl}-6-phenyl-[1,3]oxazinan-2-one], the IC50 came to 56 nM.

Consider `C[C@@H](c1ccc(-c2ccc(C3(C(=O)N(C)C)CC3)nc2)cc1)N1CC[C@](CC(C)(C)O)(c2ccccc2)OC1=O` [Example 6, 1-[5-(4-{(S)-1-[(S)-6-(2-Hydroxy-2-methyl-propyl)-2-oxo-6-phenyl-[1,3]oxazinan-3-yl]-ethyl}-phenyl)-pyridin-2-yl]-cyclopropanecarboxylic acid dimethylamide], for which the IC50 was found to be 21 nM.

In the case of `C[C@@H](c1ccc(-c2cnn(C3CCOCC3)c2)cc1)N1CC[C@](CC(C)(C)O)(c2ccccc2)OC1=O` [Example 14, (S)-6-(2-Hydroxy-2-methyl-propyl)-6-phenyl-3-((S)-1-{4-[1-(tetrahydro-pyran-4-yl)-1H-pyrazol-4-yl]-phenyl}-ethyl)-[1,3]oxazinan-2-one], the IC50 amounted to 48 nM.

`C[C@@H](c1ccc(-c2ccn([C@@H]3CCOC3)c(=O)c2)cc1)N1CC[C@](CC(C)(C)O)(c2ccccc2)OC1=O` [Example 12, (S)-6-(2-Hydroxy-2-methyl-propyl)-3-((S)-1-{4-[2-oxo-1-((R)-tetrahydro-furan-3-yl)-1,2-dihydro-pyridin-4-yl]-phenyl}-ethyl)-6-phenyl-[1,3]oxazinan-2-one]: the IC50 came out at 92 nM.

For the compound `C[C@@H](c1ccc(-c2ccc(C3(C)CCN(C)C3=O)nc2)cc1)N1CC[C@](CC(C)(C)O)(c2ccccc2)OC1=O` (stereo partly drawn) [Example 57, 3-((S)-1-{4-[6-(1,3-Dimethyl-2-oxo-pyrrolidin-3-yl)-pyridin-3-yl]-phenyl}-ethyl)-(S)-6-(2-hydroxy-2-methyl-propyl)-6-phenyl-[1,3]oxazinan-2-one], the IC50 is 29 nM.

Consider `CNC(=O)C1(c2ccc(-c3ccc([C@H](C)N4CC[C@](CC(C)(C)O)(c5ccccc5)OC4=O)cc3)nn2)CC1` [Example 10, 1-[6-(4-{(S)-1-[(S)-6-(2-Hydroxy-2-methyl-propyl)-2-oxo-6-phenyl-[1,3]oxazinan-3-yl]-ethyl}-phenyl)-pyridazin-3-yl]-cyclopropanecarboxylic acid methylamide], for which the IC50 is 61 nM.

For the compound `CCOC(=O)C1(c2cc(-c3ccc([C@H](C)N4CC[C@](CC(C)(C)O)(c5ccccc5)OC4=O)cc3)ccn2)CC1` [Example 44, 1-[4-(4-{(S)-1-[(S)-6-(2-Hydroxy-2-methyl-propyl)-2-oxo-6-phenyl-[1,3]oxazinan-3-yl]-ethyl}-phenyl)-pyridin-2-yl]-cyclopropanecarboxylic acid ethyl ester], the IC50 worked out at 181 nM.

Regarding `C[C@@H](c1ccc(-c2cccc(C3(C(N)=O)CC3)n2)cc1)N1CC[C@](CC(C)(C)O)(c2ccccc2)OC1=O` [Example 22, 1-[6-(4-{(S)-1-[(S)-6-(2-Hydroxy-2-methyl-propyl)-2-oxo-6-phenyl-[1,3]oxazinan-3-yl]-ethyl}-phenyl)-pyridin-2-yl]-cyclopropanecarboxylic acid amide], the IC50 came out at 86 nM.

Consider `C[C@@H](c1ccc(-c2ccc(C3(C#N)CC3)nn2)cc1)N1CC[C@](CC(C)(C)O)(c2ccccc2)OC1=O` [Example 4, 1-[6-(4-{(S)-1-[(S)-6-(2-Hydroxy-2-methyl-propyl)-2-oxo-6-phenyl-[1,3]oxazinan-3-yl]-ethyl}-phenyl)-pyridazin-3-yl]-cyclopropanecarbonitrile], for which the IC50 is 53 nM.

Consider `C[C@@H](c1ccc(-c2ccn([C@H]3CCOC3)c(=O)c2)cc1)N1CC[C@](CC(C)(C)O)(c2ccccc2)OC1=O` [Example 13, (S)-6-(2-Hydroxy-2-methyl-propyl)-3-((S)-1-{4-[2-oxo-1-((S)-tetrahydro-furan-3-yl)-1,2-dihydro-pyridin-4-yl]-phenyl}-ethyl)-6-phenyl-[1,3]oxazinan-2-one], for which the IC50 is 46 nM.

For the compound `C[C@@H](c1ccc(-c2cnn([C@H]3CCOC3)c2)cc1)N1CC[C@](CC(C)(C)O)(c2ccccc2)OC1=O` [Example 16, (S)-6-(2-Hydroxy-2-methyl-propyl)-6-phenyl-3-((S)-1-{4-[1-((S)-tetrahydro-furan-3-yl)-1H-pyrazol-4-yl]-phenyl}-ethyl)-[1,3]oxazinan-2-one], the IC50 came out at 29 nM.

For `C[C@@H](c1ccc(-c2ccnc(C3(C(=O)N(C)C)CC3)c2)cc1)N1CC[C@](CC(C)(C)O)(c2ccccc2)OC1=O` [Example 48, 1-[4-(4-{(S)-1-[(S)-6-(2-Hydroxy-2-methyl-propyl)-2-oxo-6-phenyl-[1,3]oxazinan-3-yl]-ethyl}-phenyl)-pyridin-2-yl]-cyclopropanecarboxylic acid dimethylamide], the IC50 was 47 nM.

Turning to `C[C@@H](c1ccc(-c2cccc(C3(S(C)(=O)=O)CC3)n2)cc1)N1CC[C@](CC(C)(C)O)(c2ccccc2)OC1=O` [Example 20, (S)-6-(2-Hydroxy-2-methyl-propyl)-3-((S)-1-{4-[6-(1-methanesulfonyl-cyclopropyl)-pyridin-2-yl]-phenyl}-ethyl)-6-phenyl-[1,3]oxazinan-2-one], the IC50 came to 73 nM.

As for `C[C@@H](c1ccc(-c2cnn([C@@H]3CCOC3)c2)cc1)N1CC[C@](CC(C)(C)O)(c2ccccc2)OC1=O` [Example 15, (S)-6-(2-Hydroxy-2-methyl-propyl)-6-phenyl-3-((S)-1-{4-[1-((R)-tetrahydro-furan-3-yl)-1H-pyrazol-4-yl]-phenyl}-ethyl)-[1,3]oxazinan-2-one], the IC50 was 27 nM.

Regarding `C[C@@H](c1ccc(-c2ccc(C3(C(=O)O)CC3)nn2)cc1)N1CC[C@](CC(C)(C)O)(c2ccccc2)OC1=O` [Example 8, 1-[6-(4-{(S)-1-[(S)-6-(2-Hydroxy-2-methyl-propyl)-2-oxo-6-phenyl-[1,3]oxazinan-3-yl]-ethyl}-phenyl)-pyridazin-3-yl]-cyclopropanecarboxylic acid], the IC50 was 182 nM.

As for `C[C@@H](c1ccc(-c2ccc(C3(C(=O)N(C)C)CC3)nn2)cc1)N1CC[C@](CC(C)(C)O)(c2ccccc2)OC1=O` [Example 11, 1-[6-(4-{(S)-1-[(S)-6-(2-Hydroxy-2-methyl-propyl)-2-oxo-6-phenyl-[1,3]oxazinan-3-yl]-ethyl}-phenyl)-pyridazin-3-yl]-cyclopropanecarboxylic acid dimethylamide], the IC50 amounted to 94 nM.

As for `C[C@@H](c1ccc(-c2ccc(C3(C(N)=O)CCCC3)nc2)cc1)N1CC[C@](CC(C)(C)O)(c2ccccc2)OC1=O` [Example 42, 1-[5-(4-{(S)-1-[(S)-6-(2-Hydroxy-2-methyl-propyl)-2-oxo-6-phenyl-[1,3]oxazinan-3-yl]-ethyl}-phenyl)-pyridin-2-yl]-cyclopentanecarboxylic acid amide], the IC50 was 56 nM.

Regarding `C[C@@H](c1ccc(-c2ccc(N3CCC[C@@H]3C(N)=O)nn2)cc1)N1CC[C@](CC(C)(C)O)(c2ccccc2)OC1=O` [Example 55, (R)-1-[6-(4-{(S)-1-[(S)-6-(2-Hydroxy-2-methyl-propyl)-2-oxo-6-phenyl-[1,3]oxazinan-3-yl]-ethyl}-phenyl)-pyridazin-3-yl]-pyrrolidine-2-carboxylic acid amide], the IC50 was 87 nM.

Consider `C[C@@H](c1ccc(-c2ccc(C3(C(N)=O)CC3)nc2)cc1)N1CC[C@](CC(C)(C)O)(c2ccccc2)OC1=O` [Example 3, 1-[5-(4-{(S)-1-[(S)-6-(2-Hydroxy-2-methyl-propyl)-2-oxo-6-phenyl-[1,3]oxazinan-3-yl]-ethyl}-phenyl)-pyridin-2-yl]-cyclopropanecarboxylic acid amide], for which the IC50 came to 39 nM.

For `C[C@@H](c1ccc(-c2ccc(C3(C(N)=O)CCC3)nc2)cc1)N1CC[C@](CC(C)(C)O)(c2ccccc2)OC1=O` [Example 51, 1-[5-(4-{(S)-1-[(S)-6-(2-Hydroxy-2-methyl-propyl)-2-oxo-6-phenyl-[1,3]oxazinan-3-yl]-ethyl}-phenyl)-pyridin-2-yl]-cyclobutanecarboxylic acid amide], the IC50 worked out at 80 nM.

Turning to `C[C@@H](c1ccc(-c2cccc(C3(C(=O)N(C)C)CC3)n2)cc1)N1CC[C@](CC(C)(C)O)(c2ccccc2)OC1=O` [Example 24, 1-[6-(4-{(S)-1-[(S)-6-(2-Hydroxy-2-methyl-propyl)-2-oxo-6-phenyl-[1,3]oxazinan-3-yl]-ethyl}-phenyl)-pyridin-2-yl]-cyclopropanecarboxylic acid dimethylamide], the IC50 is 53 nM.

Turning to `C[C@@H](c1ccc(-c2ccc(C3CCN(C)C3=O)nc2)cc1)N1CC[C@](CC(C)(C)O)(c2ccccc2)OC1=O` (stereo partly drawn) [Example 52, (S)-6-(2-Hydroxy-2-methyl-propyl)-3-((S)-1-{4-[6-(1-methyl-2-oxo-pyrrolidin-3-yl)-pyridin-3-yl]-phenyl}-ethyl)-6-phenyl-[1,3]oxazinan-2-one], the IC50 was 42 nM.

Turning to `C[C@@H](c1ccc(-c2ccnc(C3(S(C)(=O)=O)CC3)c2)cc1)N1CC[C@](CC(C)(C)O)(c2ccccc2)OC1=O` [Example 21, (S)-6-(2-Hydroxy-2-methyl-propyl)-3-((S)-1-{4-[2-(1-methanesulfonyl-cyclopropyl)-pyridin-4-yl]-phenyl}-ethyl)-6-phenyl-[1,3]oxazinan-2-one], the IC50 stood at 52 nM.
